# From article PMC10157211, “Four new suomilides isolated from the cyanobacterium Nostoc sp. KVJ20 and proposal of their biosynthetic origin” (Frontiers in Microbiology, 2023)
# What was measured:
# trypsin = conditions: ref Pluotno and Carmeli, 2005; cited from earlier work
# From the text: (§1) Compounds 5 and 6 were originally isolated via bioassay guided purification using a serine-protease inhibition assay when they were discovered in 2005 ([Pluotno and Carmeli, 2005]). The two banyasides were reported to inhibit the catalytic activity of trypsin. As far as we know, anti-bacterial activity of suomilide have not been reported previously, and the Nostoc sp. strain it has been isolated from was reported as non-toxic. This complies with our results, as no activity could be detected for 1–4 against bacteria or cell lines at high concentrations. Suomilide A has recently been investigate ...
# [1] = Dissolution of isolated fractions in solvent; format: physicochemical
# Description: Compounds 1–4 were isolated using mass-guided fractionation on preparative HPLC from 29.4 g dry mass of lyophilizated cyanobacteria from 10 L of culture. For the first purification step, the compounds were separated using a C18 reversed phase column. The collected fractions were reduced to dryness at 40°C in vacuo. […] The yields were: 1: 9.8 mg; 2: 4.1 mg; 3: 5.9 mg; 4: 2.6 mg.
# [2] = system: cancer cell proliferation; conditions: ref Ahmed et al., 2021; cited from earlier work
# From the text: as §1
# prostate cancer cells = conditions: concentration of 3.3 μM; ref Ahmed et al., 2021; cited from earlier work
# From the text: as §1
# trypsin-1 = conditions: ref Ahmed et al., 2021; read-out: IC50 trypsin-1 inhibition; cited from earlier work
# From the text: as §1
# trypsin-2 = conditions: ref Ahmed et al., 2021; read-out: IC50 trypsin-2 inhibition; cited from earlier work
# From the text: as §1
# trypsin-3 = conditions: ref Ahmed et al., 2021, cited from earlier work
# From the text: as §1
substance,measurement,setting,value
banyaside B [Compound 6],inhibition of the catalytic activity of trypsin,trypsin,inhibit
banyaside A [Compound 5],inhibition of the catalytic activity of trypsin,trypsin,inhibit
Suomilide B [Compound 1],solubility in DMSO (qualitative),"[1]; dried HPLC fraction dissolved in DMSO, after extensive shaking",well
same,solubility in methanol (qualitative),[1]; dried HPLC fraction dissolved in methanol,dissolved poorly
suomilide [Suomilide A],effect on cancer cell proliferation,[2],no effect
same,inhibition of invasion of prostate cancer cells,prostate cancer cells,inhibit the invasion
same,IC50,trypsin-1,104 nM
same,IC50,trypsin-2,4.7 nM
same,IC50,trypsin-3; read-out: IC50 trypsin-3 inhibition,11.5 nM
same,residence time,trypsin-3; surface plasmon resonance spectroscopy,57 min
